Test results as given in the METLIN SMRT retention time set (Domingo-Almenara et al. 2019).

Test: gradient 5% acetonitrile 3 min, to 50% in 2 min, to 85% in 15 min, held 3 min, 100 µL/min
Conditions: column: Zorbax Extend-C18 2.1 x 50 mm; eluents: water / acetonitrile, 0.1% formic acid
Outline: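 The mobile phases were water and acetonitrile, each with 0.1% formic acid, pumped at 100 μL/min through a Zorbax Extend-C18 column (2.1 × 50 mm, 1.8 μm). Pure standards were injected as mixtures of ~100 molecules and detected by a quadrupole time-of-flight mass spectrometer in positive and negative ionization mode. Retention time came from computationally picked adduct peaks, each inspected by hand.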

| RP-LC retention time [s] | Structure (SMILES) |
| --- | --- |
| 870 | Cc1nn(CC(=O)NCCC2=CCCCC2)c(=O)c2c(C)n(-c3ccccc3)nc12 |
| 669 | CC(=O)N1CCN(Cc2nc(-c3ccc(N4CCCC(C)C4)nc3)no2)CC1 (stereo not given) |
| 747 | O=C(NCCc1csc(-c2ccccc2)n1)[C@H]1CCCN1C(=O)c1ccco1 |
| 797 | O=C(CC1CCCCC1)NC1CCN(C(=O)c2cc(-c3cccc(Cl)c3)n[nH]2)CC1 |
| 740 | CCN1CCCn2cc(S(=O)(=O)Nc3ccc(OC)c(Cl)c3)cc2C1=O |
| 705 | CCn1cc(-c2ccc(Cl)cc2)cc1C(=O)NCCN1CCOCC1 |
| 576 | CCCN1CCN(C(=O)CC2Sc3ncccc3N(C)C2=O)CC1 (stereo not given) |
| 636 | CN(C)CCNC(=O)C1CCN(c2nn3cc(-c4ccc(F)cc4)nc3s2)CC1 |
| 754 | CN(C)c1cc2c(cc1NC(=O)Cc1ccccc1Cl)n(C)c(=O)c(=O)n2C |
| 738 | Cc1ccc(CNC(=O)C2CCN(S(=O)(=O)c3ccc4[nH]c(=O)ccc4c3)CC2)cc1 |
| 813 | CCCCNC(=O)c1ccc2c(c1)N(C)C(=O)C1CCCCN21 (stereo not given) |
| 777 | COc1ccc(-c2cc(C(F)(F)F)n3ncc(C(=O)O)c3n2)cc1OC |
| 678 | COc1cc(Cl)c(C)cc1NC(=O)Cn1ncc2c(N3CCN(c4ccccn4)CC3)ncnc21 |
| 578 | CCOCCCNC(=S)Nc1ccc2nc(N3CCN(CC)CC3)cc(C)c2c1 |
| 756 | CCn1c(=O)c2c(cc(C)n2C)n(CC(=O)Nc2c(C)cccc2C)c1=O |
| 838 | CCCN1C(=O)c2ccccc2C(C(=O)NC2CCCCC2)C1c1cc(OC)c(OC)c(OC)c1 (stereo not given) |
| 700 | CC(C)c1cccc(NC(=O)Cn2nc3n(c2=O)CCCCC3)c1 |
| 770 | CCc1cc(=O)n(CC(=O)Nc2cc(F)ccc2F)c(N2CCOCC2)n1 |
| 642 | Cc1ccc2c(Nc3ccc(C)c(F)c3)c(C(=O)N3CCSCC3)cnc2n1 |
| 948 | CCSc1nnc(-c2nn(C)c3c2CN(S(=O)(=O)c2ccccc2Cl)CC3)n1CC |
| 738 | CCc1noc(NC(C)=O)c1-c1ccc(C)c(S(=O)(=O)NC(C)C)c1 |
| 967 | CCOC(=O)c1ccc(NC(=O)C2CCN(c3c(C(=O)N(CC)CC)cnc4snc(C)c34)CC2)cc1 |
| 683 | O=C(C1CCN(c2cnn(Cc3ccccc3)c(=O)c2)C1)N1CCCC1 (stereo not given) |
| 788 | CCc1ccc(NC(=O)Cn2cnc3nc4c(cc3c2=O)CCCC4)cc1 |
| 980 | Cc1ccc(OCC(=O)Nc2cc3c(cc2C)n(C)c(=O)n3C)cc1 |
| 856 | CCc1noc(NC(C)=O)c1-c1ccc(C)c(S(=O)(=O)Nc2ccc(C)c(F)c2)c1 |
| 730 | Cc1ccc(-c2cc3n(n2)CCCN(C(=O)CCN2C(=O)NC(C)(C)C2=O)C3)cc1C |
| 854 | O=c1ccc(S(=O)(=O)N2CCCC2)cn1Cc1ccccc1Cl |
| 879 | Cc1ccc(NC(=O)C2CCCN(S(=O)(=O)c3cn(C(C)C)cn3)C2)cc1Cl (stereo not given) |
| 832 | CCn1c(=O)sc2cc(S(=O)(=O)N3CCC(C(=O)NCc4cccs4)CC3)ccc21 |

Continued, compound first:

| Structure (SMILES) | RP-LC retention time [s] |
| --- | --- |
| COc1ccc(-c2noc(CN3N=NC4C(=O)N(c5cccc(F)c5)C(=O)C43)n2)c(OC)c1 (stereo not given) | 610 |
| CN1C(=O)C(CC(=O)NCC2CCCCC2)Sc2ncccc21 (stereo not given) | 761 |
| CN(Cc1ccccc1)C(=O)c1cc2cccnc2n(Cc2ccccc2)c1=O | 950 |
| CCOC(=O)CNC(=O)N(C)Cc1nc2cc(C(=O)N(C)C)ccc2n1C | 566 |
| Cc1ccc(C(=O)N2C[C@H]3C[C@H](C2)[C@H]2CCCC(=O)N2C3)s1 | 646 |
| Cc1cc(-c2nnc(-c3ccco3)o2)c(C)n1CC(=O)NCc1ccc(Cl)cc1 | 637 |
| Cc1ccc2cc(CCC(=O)NCCc3ccccn3)c(=O)[nH]c2c1 | 596 |
| CNC(=O)c1sc(-c2ccc(C)cc2)nc1C | 785 |
| Nc1ncnc2c1c(-c1ccc(Oc3ccccc3)cc1)cn2C1CCCC1 | 1030 |
| CC(C)S(=O)(=O)N1CCC(CCOc2ccccc2)C1 (stereo not given) | 980 |
| COc1cccc(NS(=O)(=O)c2cc3c(s2)CCN(C(=O)C2CCC2)C3)c1 | 851 |
| COc1ccc(-c2nnc(SCc3cc(=O)n4ccsc4n3)o2)cc1 | 722 |
| CCCn1cc(C2=CCN(C(=O)NCC3CCCO3)CC2)c2cccnc21 (stereo not given) | 719 |
| CC1(C)COc2ccc(NC(=O)c3c(F)cccc3Cl)cc2NC1=O | 810 |
| O=C(Cc1csc(-c2ccccc2)n1)Nc1nc(-c2ccccc2Cl)cs1 | 1210 |
| CCn1cc(-c2nc(C(=O)Nc3ccc(F)cc3F)cs2)c2cccnc21 | 1220 |
| CCOC(=O)c1sc(NC(=O)Cc2ccc3c(c2)OCO3)cc1C | 856 |
| CCOC(=O)c1c(C)oc2nc(C)nc(NCCCc3ccccc3)c12 | 1280 |
| COc1cccc2sc(N3CCCCC3)nc12 | 821 |
| COc1ccc(Nc2ncccc2S(N)(=O)=O)cc1OC | 666 |

| Structure (SMILES) | RP-LC retention time [s] |
| --- | --- |
| Cc1ccc(NC(=O)Nc2ccc3nncn3c2)cc1 | 700 |
| CCOc1ccc(S(=O)(=O)Nc2cc(-c3cn4ccccc4n3)ccc2C)cc1 | 687 |
| CCc1ccc(S(=O)(=O)Nc2cc(-n3c(C)nc4ccccc4c3=O)ccc2F)s1 | 797 |
| CCOC(=O)C1CCN(C(=O)C2CCN(c3nnc(-c4ccccc4)o3)CC2)CC1 | 801 |
| COc1ccc(C(=O)NC2(c3nc(C)no3)CCCCC2)cc1F | 854 |
| COc1ccc(CNC(=O)c2cn3ccc(C)cc3n2)cc1OC | 604 |
| Cn1ncc(N2CCCC(C(=O)NC3CCCCCC3)C2)cc1=O (stereo not given) | 726 |
| O=C(Cn1c(-c2ccccc2F)nc2ccccc21)N1CCOCC1 | 600 |
| O=C(CN1CCN(Cc2ccccc2F)C1=O)NCc1ccccc1Br | 853 |
| CN(C)C(=O)c1cc2c(s1)CCC(C(=O)Nc1ccccc1)C2 (stereo not given) | 772 |
| COc1ccc(-c2noc(-c3nnn4c3COC(c3ccc(F)cc3)C4)n2)cc1OC (stereo not given) | 1020 |
| COC(=O)c1cc2c(=O)n(-c3nc4ccc(OC)cc4s3)ccc2nc1C | 1160 |
| O=C1Nc2ccccc2SC1C(=O)N1CCC(C(=O)N2CCN(c3ccc(F)cc3)CC2)CC1 (stereo not given) | 778 |
| COc1cccc(C(=O)NCC(=O)Nc2nc3ccccc3[nH]2)c1 | 624 |
| CSc1ccc(-c2nc3cccc(C)n3c2Nc2ccccc2C)cc1 | 808 |
| CCCOc1ccc(CNC(=O)c2cnc(OC)nc2)cc1 | 803 |
| COc1ccc(N2C=C(C(=O)N3CCOCC3)S(=O)(=O)c3ccc(F)cc32)cc1 | 778 |
| COc1ccc(NC(=O)c2sc(-c3cn(C(C)C)c4ncccc34)nc2C)cc1 | 902 |
| Cc1cc(Br)ccc1NC(=O)CCn1c(=O)oc2ccccc21 | 823 |
| O=C(Nc1ccc(OC(F)(F)F)cc1)C1CCN(S(=O)(=O)c2ccc3[nH]c(=O)ccc3c2)CC1 | 831 |

| Structure (SMILES) | RP-LC retention time [s] |
| --- | --- |
| O=C(NCCc1cccs1)C1CCN(Cc2cc3ccccc3n2Cc2ccc(Cl)cc2)CC1 | 846 |
| COC(=O)c1ccc(NC(=O)N2CC(N(C3CCOCC3)S(C)(=O)=O)C2)cc1 | 686 |
| Cc1ccc(-c2nc3nc4c(c(N5CCN(c6ccccn6)CC5)n3n2)CCC4)cc1 | 684 |
| CCc1cccc(C)c1Nc1c(-c2ccccc2O)nc2ncccn12 | 907 |
| O=C(OCc1ccc([N+](=O)[O-])cc1)c1ccc(S(=O)(=O)NCC2CCCO2)cc1 (stereo not given) | 870 |
| O=C(CSc1ncnc2c1cnn2-c1ccc(F)cc1)Nc1nc2ccccc2s1 | 1020 |
| Cc1ccc(-c2nc(NCCC3=CCCCC3)c3ccccc3n2)cc1 | 974 |
| O=C(C1CCCCCC1)N1CCC2(CC1)CC(O)CCO2 (stereo not given) | 681 |
| CC1CCN(c2ccc(C(=O)NCC3CCCO3)cc2S(=O)(=O)N2CCC(C)CC2)CC1 (stereo not given) | 1170 |
| Cc1nc(NC(=O)c2cc(C3CC3)n(C3CCS(=O)(=O)C3)n2)sc1C (stereo not given) | 764 |
| COc1ccc(NC(=O)C2CCN(S(C)(=O)=O)c3cc(C)ccc3O2)cc1 (stereo not given) | 872 |
| CCSc1nnc(NC(=O)c2nnn(-c3nc4c(s3)CCCC4)c2C)s1 | 1190 |
| Cc1c(CCOC(=O)c2ccc([N+](=O)[O-])cc2)sc[n+]1Cc1ccccc1 | 909 |
| CCOC(=O)c1ccc(NC2=NS(=O)(=O)C(c3ccc(OC)cc3)=C2C)cc1 | 928 |
| CCOC(=O)c1ccc(NC(=O)c2cc3sc(Cl)cc3n2CC)cc1 | 1260 |
| COc1ccc(C(=O)NCc2c(-c3ccccc3)nc3sc(C)nn23)cn1 | 774 |
| CC(C)NC(=O)C1CCN(c2nc3ccc(-c4ccccc4)nc3s2)CC1 | 927 |
| O=C(NCCN1CCCCC1)C1CCc2sc(C(=O)N3CCCCC3)cc2C1 (stereo not given) | 558 |
| COc1ncccc1CNC(=O)c1cnn2cccnc12 | 638 |
| O=C(O)C1CCCN1C(=O)c1ccc(N2C(=O)C3C4C=CC(C4)C3C2=O)cc1 (stereo not given) | 642 |
